This is an account of results in patent US20210069295A1, “GALECTINS CONTROL MTOR IN RESPONSE TO ENDOMEMBRANE DAMAGE AND PROVIDE A MECHANISM AND TARGET FOR THE TREATMENT OF AUTOPHAGY-RELATED DISEASES” (STC. UNM, priority 2017, published 2021).

One assay has as its system Gal8 and Gal9. In words: Galectin puncta formation by high-content microscopy in HeLa cells. In kind it is cell-based. As to conditions: HeLa cells overexpressing GFP-Gal8 or GFP-Gal9, 100 μM, 1 h full medium. The protocol: (A) Analysis of the puncta formation of galectins in response to GPN. HeLa cells overexpressing YFP-fused with the indicated galectins were treated with 100 μM GPN or without (Ctrl) in full medium for 1 h and galectin puncta were quantified by HC. […] White masks, algorithm defined cell boundaries (primary objects); green masks, computer-identified galectins puncta (target objects). Data, means±SEM, n≥3 independent experiments (500 primary objects counted per well; ≥5 wells/sample per each experiment); *p<0.05, **p<0.01, † p≥0.05, ANOVA. (B) Immunoprecipitation analysis of the interactions between galectins and mTOR or RagA GTPase. HEK293T cells overexpressing FLAG-tagged galectins were subjected to anti-FLAG immunoprecipitation followed by immunoblotting for endogenous mTOR or RagA. (C) Immunoprecipitation analysis of interactions between Gal8 and mTOR protein complexes in response to GPN treatment. […] Biotinylated proteins from HEK293T cell expressing APEX2-vector or APEX2-Gal8, after GPN and biotin phenol (BP) treatment were affinity-enriched by binding to streptavidin-beads, and samples were analyzed by immunoblotting analysis for endogenous RagA, p14, mTOR or Raptor. […]
(A) HC analysis of the puncta of galectins in response to chloroquine, Bafilomycin A1 and GPN. HeLa cells overexpressing GFP-Gal8 or GFP-Gal9 were treated with 100 μM chloroquine (CQ), […] (BAF) or 100 μM GPN in full medium for 1 h, and the puncta of GFP-Gal8 or GFP-Gal9 were quantified by HC. […] Data, means±SEM, n≥3 independent experiments (500 primary objects counted per well; ≥5 wells/sample per each experiment), † p≥0.05, **p<0.01, ANOVA. […] HeLa cells expressing GFP-Gal8 were treated with 100 μM GPN in full medium for 1 h, and the overlap between GFP-Gal8 and LAMP2 were quantified by HC. […] Data, means±SEM, n≥3 independent experiments (500 primary objects counted per well; ≥5 wells/sample per each experiment), **p<0.01, ANOVA. […]

In a further assay the test system is AMPK. In words: AMPK activation by immunoblotting of phosphorylated AMPKα, ACC and ULK1 in HEK293A cells. The format is cell-based. As to conditions: Gal9 KO HEK293A, 1 μM oligomycin 1 h. In general terms: A western blot detects proteins with antibodies after separation by electrophoresis.
Another assay relates to mTOR, Raptor, RagA, p14. In words: APEX2 proximity biotinylation with streptavidin enrichment and immunoblotting in HEK293T cells. In kind it is cell-based. As to conditions: APEX2-galectin fusions. The protocol:
(A) Analysis of the puncta formation of galectins in response to GPN. HeLa cells overexpressing YFP-fused with the indicated galectins were treated with 100 μM GPN or without (Ctrl) in full medium for 1 h and galectin puncta were quantified by HC. […] White masks, algorithm defined cell boundaries (primary objects); green masks, computer-identified galectins puncta (target objects). Data, means±SEM, n≥3 independent experiments (500 primary objects counted per well; ≥5 wells/sample per each experiment); *p<0.05, **p<0.01, † p≥0.05, ANOVA. (B) Immunoprecipitation analysis of the interactions between galectins and mTOR or RagA GTPase. HEK293T cells overexpressing FLAG-tagged galectins were subjected to anti-FLAG immunoprecipitation followed by immunoblotting for endogenous mTOR or RagA. (C) Immunoprecipitation analysis of interactions between Gal8 and mTOR protein complexes in response to GPN treatment. THP-1 cells not treated or treated with 100 μM GPN in full medium for 1 h were subjected to immunoprecipitation with anti-Gal8 antibody, followed by immunoblotting for endogenous RagA, p14, mTOR or Raptor. (D) Analysis of the proximity of Gal8 to mTOR and other proteins in mTOR complexes in response to GPN. Biotinylated proteins from HEK293T cell expressing APEX2-vector or APEX2-Gal8, after GPN and biotin phenol (BP) treatment were affinity-enriched by binding to streptavidin-beads, and samples were analyzed by immunoblotting analysis for endogenous RagA, p14, mTOR or Raptor. Data, means±SEM, (n=3), **p<0.01, ANOVA. (E) Immunoprecipitation analysis of the interactions between Gal8 and RagA GTPase and its mutants. Lysates of HEK293T cells overexpressing FLAG-Gal8 and HA-tagged RagA proteins (RagAWT, RagAT21L or RagAQ66L) were subjected to anti-FLAG immunoprecipitation, followed by immunoblotting for HA-tagged RagA proteins. (F) Immunoprecipitation analysis of the interactions between Gal8 and RagC GTPase and its mutants. HEK293T cells overexpressing FLAG-Gal8 and HA-tagged RagC proteins (RagCWT, RagCS75L or RagCQ120L) lysates were subjected to anti-FLAG immunoprecipitation, followed by immunoblotting for HA-tagged RagC proteins.
HEK293T cells transfected with pJJiaDEST-APEX2 or pJJiaDEST-APEX2-Gal8 were incubated with 100 μM GPN (Cayman Chemicals) in full medium for 1 h (confluence of cells remained at 70-80%). Cells were next incubated in 500 μM biotin-phenol (AdipoGen) in full medium for the last 30 min of GPN incubation. A 1 min pulse with 1 mM H2O2 at room temperature was stopped with quenching buffer (10 mM sodium ascorbate, 10 mM sodium azide and 5 mM Trolox in Dulbecco's Phosphate Buffered Saline (DPBS)). All samples were washed twice with quenching buffer, and twice with DPBS.
For immunoblotting analysis, cell pellets were lysed with 500 μL ice-cold RIPA lysis buffer (ThermoFisher Scientific) with protease inhibitor cocktail (Roche), 1 mM PMSF (sigma), 10 mM sodium ascorbate, 10 mM sodium azide and 5 mM Trolox, gently pipetted and then the incubated for 30 min. The lysates were clarified by centrifugation at 13,000 rpm for 5 min, followed by measuring protein concentrations using a Pierce BCA Protein Assay kit, with freshly made bovine serum albumin (BSA) solutions as standards. Streptavidin-coated magnetic beads (ThermoFisher Scientific) were washed with RIPA lysis buffer. 3 mg of each sample was mixed with 100 μL of streptavidin beads. […] 15 μL of each sample was separated by SDS-PAGE and analyzed by Western blot using indicated antibodies.

The test system of the next assay is AMPKα. In words: Co-IP of FLAG-tagged galectins with endogenous AMPKα in HEK293T cells. In kind it is binding. As to conditions: HEK293T overexpressing FLAG-tagged galectins.
In a further assay the target is T1, TAK1 (Homo sapiens, UniProt O43318).
T1 sequence (O43318 1-606): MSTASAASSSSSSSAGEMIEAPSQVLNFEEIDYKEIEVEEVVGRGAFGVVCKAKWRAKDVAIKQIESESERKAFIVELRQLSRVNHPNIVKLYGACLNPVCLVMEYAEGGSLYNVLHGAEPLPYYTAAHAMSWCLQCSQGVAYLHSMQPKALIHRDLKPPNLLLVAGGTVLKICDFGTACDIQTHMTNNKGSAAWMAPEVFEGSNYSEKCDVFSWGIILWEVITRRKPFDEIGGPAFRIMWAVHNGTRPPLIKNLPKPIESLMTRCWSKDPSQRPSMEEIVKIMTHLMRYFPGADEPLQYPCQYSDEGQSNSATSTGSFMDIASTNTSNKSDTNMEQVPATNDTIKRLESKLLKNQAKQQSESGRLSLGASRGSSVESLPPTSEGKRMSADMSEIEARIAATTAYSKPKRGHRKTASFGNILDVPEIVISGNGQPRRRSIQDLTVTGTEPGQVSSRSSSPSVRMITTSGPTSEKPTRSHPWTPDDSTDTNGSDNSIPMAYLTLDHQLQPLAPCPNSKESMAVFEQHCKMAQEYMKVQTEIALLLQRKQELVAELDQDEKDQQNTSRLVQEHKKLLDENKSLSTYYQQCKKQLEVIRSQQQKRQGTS
In words: Co-IP of FLAG-tagged galectins with GFP-tagged TAK1 in HEK293T cells. In kind it is binding. As to conditions: HEK293T overexpressing FLAG-tagged galectins and GFP-TAK1. The protocol: (A) Analysis of the activation of AMPK in wildtype (WT) and the complementation of Gal9 in Gal9-knockout (Gal9KO) HEK293A cells treated with 100 μM GPN in full medium for 1 h. AMPK activity was monitored by immunoblotting analysis of AMPKα (T172) and acetyl-CoA carboxylase (ACC, S79) phosphorylation (phosphorylated AMPKα (T172) and ACC (S79) relative to total AMPKα and ACC respectively). (B) HEK293T cells transfected with scrambled siRNA (Scr) or Gal9 siRNA (Gal9KD) were treated with 2 mM LLOMe in full medium for 1 h, and the cell lysates were analyzed for phosphorylation of indicated proteins. Data, means±SEM, n=3, *p<0.05, ANOVA. (C) HEK293T cells overexpressing FLAG-Gal9 were treated with 2 mM LLOMe in full medium for 1 h. Cell lysates were analyzed for the indicated proteins. Data, means±SEM, n=3, *p<0.05, ANOVA. (D) Immunoprecipitation analysis of the interactions between galectins and TAK1. HEK293T cells overexpressing FLAG-tagged galectins and GFP-tagged TAK1 were subjected to anti-FLAG immunoprecipitation followed by immunoblotting for GFP-tagged TAK1. (E) Schematic diagram of Gal9 domains and deletion constructs. (F) HEK293T cells overexpressing FLAG-tagged full-length or truncated Gal9 and GFPAMPK were subjected to anti-FLAG immunoprecipitation, followed by immunoblotting for GFP-AMPK. (G) HEK293T cells overexpressing FLAG-tagged full-length or truncated Gal9 and GFP-TAK1 were subjected to anti-FLAG immunoprecipitation, followed by immunoblotting for GFP-TAK1. (H) Analysis of the activation of AMPK in HEK293T cells subjected to knockdowns as indicated treated with 100 μM GPN in full medium for 1 h. AMPK activity was monitored by immunoblotting analysis of AMPKα (T172) and acetyl-CoA carboxylase (ACC, S79) phosphorylation (phosphorylated AMPKα (T172) and ACC (S79) relative to total AMPKα and ACC respectively). Cells transfected with scrambled siRNA were as control (Scr). […]

`CCN(CC)CCCC(C)Nc1ccnc2cc(Cl)ccc12` (stereo not drawn) [chloroquine]: the “Gal8 and Gal9 puncta formation” value in the assay on Gal8 and Gal9 is given as “not upon treatment”.
With `CC[C@H]1/C=C/C=C/C[C@@H](C)[C@H](O)[C@@](C)(O)C(=O)[C@@H](C)[C@H](O)[C@@H](C)C(=O)[C@@H](C)[C@H](O)[C@@H](C)/C=C/C(=O)O[C@@H]2[C@H](C)[C@H](CC1)O[C@]1(CC[C@H](C)[C@H](C[C@@H](C)O)O1)[C@H]2C` [oligomycin], the “AMPK phosphorylation in Gal9 KO cells” value with AMPK is “increased AMPK phosphorylation”.
With “Gal3: cytosolic lectin, galectin-3, used as comparator”, in the assay with mTOR, Raptor, RagA, p14, the “mTOR, Raptor and RagA found in the proximity of the galectin” value is on record as “not in the proximity”. In addition, the “AMPKα in complexes (co-IP) with galectin” value with AMPKα is recorded as “not detected”. Besides, the “interaction with TAK1” value with TAK1 was “not”.
Turning to `CO/C1=C\C(C)=C\[C@@H](C)[C@@H](O)[C@@H](C)C/C(C)=C/C=C/[C@H](OC)[C@@H]([C@@H](C)[C@@H](O)[C@H](C)[C@@]2(O)C[C@@H](O)[C@H](C)[C@@H](C(C)C)O2)OC1=O` [Bafilomycin A 1, Bafilomycin A1], the “Gal8 and Gal9 puncta formation” value in the assay with Gal8 and Gal9 is listed as “not upon treatment”.
